Tests used:
Assay in all cases: relative viability (nuclei count vs DMSO), 5 days (fraction); higher = more cells survive
GSK126 + Lapatinib = compound: CC[C@H](C)N1C=C(C2=C(C=C(C=C21)C3=CN=C(C=C3)N4CCNCC4)C(=O)NCC5=C(C=C(NC5=O)C)C)C [GSK126] + CS(=O)(=O)CCNCc1ccc(-c2ccc3ncnc(Nc4ccc(OCc5cccc(F)c5)c(Cl)c4)c3c2)o1 [Lapatinib] (partner 2 µM)
Summary of the method: (§1)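 Values are medians from duplicate plates. Each reflects relative viability, defined as the nuclei count of treated wells over that of vehicle wells. Lung cancer cell lines in 1536-well plates were pin-tool dosed one day after seeding with one drug alone or with a fixed anchor-drug dose plus five library-drug doses (not always all listed) in √10 steps, then fixed, stained and imaged at 4× after 5 days.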

Carboplatin + Lapatinib = compound: C1CC(C1)(C(=O)O)C(=O)O.[NH2-].[NH2-].[Pt+2] [Carboplatin] + CS(=O)(=O)CCNCc1ccc(-c2ccc3ncnc(Nc4ccc(OCc5cccc(F)c5)c(Cl)c4)c3c2)o1 [Lapatinib] (partner 2 µM)
Summary of the method: as §1

GSK126 + Dasatinib = compound: CC[C@H](C)N1C=C(C2=C(C=C(C=C21)C3=CN=C(C=C3)N4CCNCC4)C(=O)NCC5=C(C=C(NC5=O)C)C)C [GSK126] + Cc1nc(Nc2ncc(C(=O)Nc3c(C)cccc3Cl)s2)cc(N2CCN(CCO)CC2)n1 [Dasatinib] (partner 0.075 µM)
Summary of the method: as §1

GSK126 + Trametinib = compound: CC[C@H](C)N1C=C(C2=C(C=C(C=C21)C3=CN=C(C=C3)N4CCNCC4)C(=O)NCC5=C(C=C(NC5=O)C)C)C [GSK126] + CC(=O)Nc1cccc(-n2c(=O)n(C3CC3)c(=O)c3c(Nc4ccc(I)cc4F)n(C)c(=O)c(C)c32)c1 [Trametinib] (partner 0.02 µM)
Summary of the method: as §1

| Cell Line | relative viability (GSK126 + Lapatinib; first compound 0.08 µM) | relative viability (GSK126 + Lapatinib; first compound 0.253 µM) | relative viability (GSK126 + Lapatinib; first compound 0.8 µM) | relative viability (GSK126 + Lapatinib; first compound 2.53 µM) | relative viability (GSK126 + Lapatinib; first compound 8 µM) | relative viability (Carboplatin + Lapatinib; first compound 0.08 µM) | relative viability (Carboplatin + Lapatinib; first compound 0.253 µM) | relative viability (Carboplatin + Lapatinib; first compound 0.8 µM) | relative viability (Carboplatin + Lapatinib; first compound 2.53 µM) | relative viability (Carboplatin + Lapatinib; first compound 8 µM) | relative viability (GSK126 + Dasatinib; first compound 0.08 µM) | relative viability (GSK126 + Dasatinib; first compound 0.253 µM) | relative viability (GSK126 + Dasatinib; first compound 0.8 µM) | relative viability (GSK126 + Dasatinib; first compound 2.53 µM) | relative viability (GSK126 + Dasatinib; first compound 8 µM) | relative viability (GSK126 + Trametinib; first compound 0.08 µM) | relative viability (GSK126 + Trametinib; first compound 0.253 µM) | relative viability (GSK126 + Trametinib; first compound 0.8 µM) | relative viability (GSK126 + Trametinib; first compound 2.53 µM) | relative viability (GSK126 + Trametinib; first compound 8 µM) |
| --- | --- | --- | --- | --- | --- | --- | --- | --- | --- | --- | --- | --- | --- | --- | --- | --- | --- | --- | --- | --- |
| SK-MES-1 | 0.496 | 0.455 | 0.482 | 0.431 | 0.46 | 0.469 | 0.475 | 0.506 | 0.548 | 0.472 | 0.446 | 0.47 | 0.307 | 0.305 | 0.373 | 0.573 | 0.6 | 0.539 | 0.491 | 0.515 |
| NCI-H1648 |  |  |  |  |  |  |  |  |  |  |  |  |  |  |  | 0.544 | 0.959 | 0.409 | 0.522 | 0.445 |
| PC-14 | 0.359 | 0.309 | 0.292 | 0.307 | 0.326 | 0.312 | 0.368 | 0.33 | 0.354 | 0.251 | 0.261 | 0.236 | 0.231 | 0.255 | 0.222 | 0.912 | 0.694 | 0.708 | 0.662 | 0.699 |
| NCI-H1651 | 0.896 | 0.834 | 0.805 | 0.843 | 0.894 | 0.852 | 0.743 | 0.965 | 0.837 | 0.497 | 0.534 | 0.427 | 0.363 | 0.443 | 0.45 | 0.794 | 0.86 | 0.811 | 0.844 | 0.866 |
| HOP-62 | 1.17 | 1.05 | 1.07 | 1.06 | 0.937 | 0.98 | 1.07 | 1.09 | 1.02 | 0.812 | 0.829 | 0.583 | 0.636 | 0.566 | 0.595 | 0.406 | 0.411 | 0.357 | 0.383 | 0.375 |
| HCC-44 | 0.998 | 1.07 | 1.04 | 0.846 | 1.02 | 1.03 | 1.01 | 0.984 | 0.965 | 0.968 |  |  |  |  |  | 1.08 | 1.04 | 1.06 | 1.03 | 1.06 |
| HCC-15 | 0.841 | 0.888 | 0.806 | 0.785 | 0.727 | 0.919 | 0.854 | 0.875 | 0.814 | 0.66 | 0.728 | 0.671 | 0.578 | 0.609 | 0.653 | 0.425 | 0.409 | 0.386 | 0.382 | 0.359 |
| NCI-H460 | 0.971 | 1.03 | 0.879 | 1.14 | 1.1 | 0.977 | 0.87 | 0.957 | 0.779 | 0.336 | 0.562 | 0.483 | 0.455 | 0.421 | 0.569 | 0.422 | 0.153 | 0.121 | 0.11 | 0.195 |
| NCI-H1299 | 0.968 | 0.997 | 0.952 | 0.931 | 0.929 | 0.993 | 0.922 | 0.944 | 0.907 | 0.892 |  |  |  |  |  |  |  |  |  |  |
